This is an account of results in patent publication US20260028354A1, “TETRAHYDRONAPHTHALENE DERIVATIVES AS ESTROGEN RECEPTOR DEGRADERS” (REGENT OF THE UNIVERSITY OF MICHIGAN, priority 2022, published 2026).

Where two headings read alike, the source gives them in different places.

Experiment [1] addresses ER (Homo sapiens (Human), UniProt P03372). Put plainly: In-cell western blot analysis of ER for "B" compounds. In kind it is cell-based. Conditions: 16 hours, read-out: ICW DC50. The essentials:
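In-cell western: fixed cells stained with primary antibodies (2 h, RT), then anti-rabbit-680 and anti-mouse-800 secondaries (1:1000, 1 h, RT), imaged on a LI-COR plate reader. Relative ER level in treated wells expressed against untreated and DMSO-treated wells set as 100%.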

Experiment [2] can be described thus: Cell growth assay (WST-8) for "B" compounds. In kind it is cell-based. The note with it: read-out: Cell growth Inhibition in T47D cell line IC50. The essentials:
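Cells seeded at 1500/well overnight, then exposed to compounds for 4 days. 10% WST-8 added for 2.5 h at 37 °C and absorbance read at 450 nm. Growth given as absorbance relative to vehicle control, from three repeats.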
Background: Formazan colour is commonly taken as a measure of viable cells.

Chain of ER (P03372 whole entry): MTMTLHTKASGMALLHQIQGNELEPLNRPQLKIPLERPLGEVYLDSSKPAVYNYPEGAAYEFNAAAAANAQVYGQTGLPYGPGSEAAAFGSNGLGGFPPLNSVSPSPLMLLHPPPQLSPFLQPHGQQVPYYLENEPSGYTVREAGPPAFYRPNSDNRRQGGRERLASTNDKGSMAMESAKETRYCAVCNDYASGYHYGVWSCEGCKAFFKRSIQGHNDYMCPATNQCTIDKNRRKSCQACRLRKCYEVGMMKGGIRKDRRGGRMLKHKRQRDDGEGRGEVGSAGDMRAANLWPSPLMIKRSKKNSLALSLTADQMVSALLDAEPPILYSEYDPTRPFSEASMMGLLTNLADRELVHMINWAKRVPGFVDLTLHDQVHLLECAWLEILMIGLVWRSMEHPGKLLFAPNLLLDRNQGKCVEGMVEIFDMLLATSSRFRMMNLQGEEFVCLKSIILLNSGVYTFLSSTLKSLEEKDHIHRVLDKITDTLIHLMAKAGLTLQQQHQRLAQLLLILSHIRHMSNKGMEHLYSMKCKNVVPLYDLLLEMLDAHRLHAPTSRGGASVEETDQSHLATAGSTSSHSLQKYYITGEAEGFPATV

The term IC50 denotes the midpoint of a concentration-inhibition curve. Regarding `O=C1CCC(N2Cc3cc4c(cc3C2=O)OC[C@@H]2CN(CC3CCC5(CN(c6ccc([C@@H]7c8ccc(O)cc8CC[C@@H]7c7ccccc7)cc6)C5)OC3)CCN42)C(=O)N1` (stereo partly drawn) [Compound B334, 3-((4aS)-3-((2-(4-((1R,2S)-6-hydroxy-2-phenyl-1,2,3,4-tetrahydronaphthalen-1-yl)phenyl)-5-oxa-2-azaspiro[3.5]nonan-7-yl)methyl)-8-oxo-1,2,3,4,4a,5,8,10-octahydro-9H-pyrazino[1′,2′:4,5][1,4]oxazino[2,3-f]isoindol-9-yl)piperidine-2,6-dione], the DC50 in experiment [1] lay in the range of 10 to 100 nM. Further, the IC50 in experiment [2] (T47D, T47D cell line) was < 1 nM.

Consider `O=C1CCC(N2Cc3c(ccc4c3OCC43CCN(CC4CCC5(CN(c6ccc([C@@H]7c8ccc(O)cc8CC[C@@H]7c7ccccc7)cc6)C5)OC4)CC3)C2=O)C(=O)N1` (stereo partly drawn) [Compound B335, 3-(1′-((2-(4-((1R,2S)-6-hydroxy-2-phenyl-1,2,3,4-tetrahydronaphthalen-1-yl)phenyl)-5-oxa-2-azaspiro[3.5]nonan-7-yl)methyl)-6-oxo-6,8-dihydro-2H,7H-spiro[furo[2,3-e]isoindole-3,4′-piperidin]-7-yl)piperidine-2,6-dione], for which the DC50 in experiment [1] was in the range of 10 to 100 nM. In addition, the IC50 in experiment [2] (T47D) is < 1 nM.

As for `O=C1CC[C@H](NC(=O)c2ccc3c(n2)OC[C@H]2CN(CC4COC5(CCN(c6ccc([C@@H]7c8ccc(O)cc8CC[C@@H]7c7ccccc7)cc6)CC5)OC4)CCN32)C(=O)N1` [Compound B336, (R)-N-((S)-2,6-dioxopiperidin-3-yl)-3-((9-(4-((1R,2S)-6-hydroxy-2-phenyl-1,2,3,4-tetrahydronaphthalen-1-yl)phenyl)-1,5-dioxa-9-azaspiro[5.5]undecan-3-yl)methyl)-1,2,3,4,4a,5-hexahydropyrazino[1,2-d]pyrido[2,3-b][1,4]oxazine-8-carboxamide], the DC50 in experiment [1] was 10 to 100 nM. In addition, the IC50 in experiment [2] (T47D, T47D cell line) was in the range of 1 to 10 nM.

Turning to `O=C1CC[C@H](N2Cc3c(ccc4c3OCC43CCN(CC4COC5(CCN(c6ccc([C@@H]7c8ccc(O)cc8CC[C@@H]7c7ccccc7)cc6)CC5)OC4)CC3)C2=O)C(=O)N1` [Compound B337, (S)-3-(1′-((9-(4-((1R,2S)-6-hydroxy-2-phenyl-1,2,3,4-tetrahydronaphthalen-1-yl)phenyl)-1,5-dioxa-9-azaspiro[5.5]undecan-3-yl)methyl)-6-oxo-6,8-dihydro-2H,7H-spiro[furo[2,3-e]isoindole-3,4′-piperidin]-7-yl)piperidine-2,6-dione], the DC50 in experiment [1] is < 10 nM. For the same compound, the IC50 in experiment [2] (T47D) was < 1 nM.

`O=C1CCC(N2C(=O)c3cc4c(cc3C2=O)CN(CC2COC3(CCN(c5ccc([C@@H]6c7ccc(O)cc7CC[C@@H]6c6ccccc6)cc5)CC3)OC2)C4)C(=O)N1` (stereo partly drawn) [Compound B338, 2-(2,6-dioxopiperidin-3-yl)-6-((9-(4-((1R,2S)-6-hydroxy-2-phenyl-1,2,3,4-tetrahydronaphthalen-1-yl)phenyl)-1,5-dioxa-9-azaspiro[5.5]undecan-3-yl)methyl)-6,7-dihydropyrrolo[3,4-f]isoindole-1,3(2H,5H)-dione]: in experiment [1], the DC50 fell in the range of 10 to 100 nM. In addition, the IC50 in experiment [2] (T47D, T47D cell line) lay in the range of 1 to 10 nM.

As to `O=C1CCC(Nc2ccc(C3CCN(CC4COC5(CN(c6ccc([C@@H]7c8ccc(O)cc8CC[C@@H]7c7ccccc7)cc6)C5)OC4)CC3)cc2)C(=O)N1` (stereo partly drawn) [Compound B339, 3-((4-(1-((2-(4-((1R,2S)-6-hydroxy-2-phenyl-1,2,3,4-tetrahydronaphthalen-1-yl)phenyl)-5,9-dioxa-2-azaspiro[3.5]nonan-7-yl)methyl)piperidin-4-yl)phenyl)amino)piperidine-2,6-dione], the DC50 in experiment [1] was > 100 nM. Further, the IC50 in experiment [2] (T47D, T47D cell line) fell in the range of 1 to 10 nM.

Take `O=C1CC[C@H](N2Cc3c(ccc4c3OC[C@H]3CN(CC5COC6(CCN(c7ccc([C@@H]8c9cc(Cl)c(O)cc9CC[C@@H]8c8ccccc8)cc7)CC6)OC5)CCN43)C2=O)C(=O)N1` [Compound B340, (S)-3-((R)-7-((9-(4-((1R,2S)-7-chloro-6-hydroxy-2-phenyl-1,2,3,4-tetrahydronaphthalen-1-yl)phenyl)-1,5-dioxa-9-azaspiro[5.5]undecan-3-yl)methyl)-1-oxo-1,3,5,5a,6,7,8,9-octahydro-2H-pyrazino[1′,2′:4,5][1,4]oxazino[2,3-e]isoindol-2-yl)piperidine-2,6-dione]: the DC50 in experiment [1] was 10 to 100 nM. For the same compound, in experiment [2] (T47D, T47D cell line), the IC50 lay in the range of 1 to 10 nM.

With `O=C1CC[C@H](N2Cc3c(ccc4c3OC[C@H]3CN(CC(=O)OC5CCN(c6ccc([C@@H]7c8ccc(O)cc8CC[C@@H]7c7ccccc7)cc6)CC5)CCN43)C2=O)C(=O)N1` [Compound B341], the DC50 in experiment [1] is < 10 nM. In addition, the IC50 in experiment [2] (T47D, T47D cell line) is < 1 nM.

Take `O=C1CCC(N2Cc3cc4c(cc3C2=O)OC[C@@H]2CN(CC(=O)OC3CCN(c5ccc([C@@H]6c7ccc(O)cc7CC[C@@H]6c6ccccc6)cc5)CC3)CCN42)C(=O)N1` (stereo partly drawn) [Compound B342, 1-(4-((1R,2S)-6-hydroxy-2-phenyl-1,2,3,4-tetrahydronaphthalen-1-yl)phenyl)piperidin-4-yl 2-((4aS)-9-(2,6-dioxopiperidin-3-yl)-8-oxo-1,2,4a,5,9,10-hexahydro-8H-pyrazino[1′,2′:4,5][1,4]oxazino[2,3-f]isoindol-3(4H)-yl)acetate]: in experiment [1], the DC50 was < 10 nM. For the same compound, the IC50 in experiment [2] (T47D, T47D cell line) was in the range of 1 to 10 nM.

Take `O=C1CCC(N2Cc3c(ccc4c3OCC43CCN(CC(=O)OC4CCN(c5ccc([C@@H]6c7ccc(O)cc7CC[C@@H]6c6ccccc6)cc5)CC4)CC3)C2=O)C(=O)N1` (stereo partly drawn) [Compound B343, 1-(4-((1R,2S)-6-hydroxy-2-phenyl-1,2,3,4-tetrahydronaphthalen-1-yl)phenyl)piperidin-4-yl 2-(7-((S)-2,6-dioxopiperidin-3-yl)-6-oxo-7,8-dihydro-2H,6H-spiro[furo[2,3-c]isoindolc-3,4′-piperidin]-1′-yl)acetate]: the DC50 in experiment [1] was > 100 nM. Also, in experiment [2] (T47D), the IC50 was in the range of 1 to 10 nM.

In the case of `O=C1CCC(Nc2ccc(C3CCN(CC4COC5(CCN(c6ccc([C@@H]7c8ccc(O)cc8CC[C@@H]7c7ccccc7)cc6)CC5)C4)CC3)cc2)C(=O)N1` (stereo partly drawn) [Compound B344, 3-((4-(1-((8-(4-((1R,2S)-6-hydroxy-2-phenyl-1,2,3,4-tetrahydronaphthalen-1-yl)phenyl)-1-oxa-8-azaspiro[4.5]decan-3-yl)methyl)piperidin-4-yl)phenyl)amino)piperidine-2,6-dione], the DC50 in experiment [1] is > 100 nM. The IC50 in experiment [2] (T47D, T47D cell line) was 1 to 10 nM.

For `O=C1CCC(Nc2ccc(C3CCN(CC4COC5(CCN(c6ccc([C@@H]7c8ccc(O)cc8CC[C@@H]7c7ccccc7)cc6)CC5)OC4)CC3)cc2)C(=O)N1` (stereo partly drawn) [Compound B345, 3-((4-(1-((9-(4-((1R,2S)-6-hydroxy-2-phenyl-1,2,3,4-tetrahydronaphthalen-1-yl)phenyl)-1,5-dioxa-9-azaspiro[5.5]undecan-3-yl)methyl)piperidin-4-yl)phenyl)amino)piperidine-2,6-dione], the DC50 in experiment [1] was > 100 nM. In experiment [2] (T47D, T47D cell line), the IC50 was in the range of 1 to 10 nM.

Regarding `O=C1CCC(N2Cc3c(ccc4c3OCC43CCN(CC4COC5(CN(c6ccc([C@@H]7c8ccc(O)cc8CC[C@@H]7c7ccccc7)cc6)C5)OC4)CC3)C2=O)C(=O)N1` (stereo partly drawn) [Compound B346, 3-(1′-((2-(4-((1R,2S)-6-hydroxy-2-phenyl-1,2,3,4-tetrahydronaphthalen-1-yl)phenyl)-5,9-dioxa-2-azaspiro[3.5]nonan-7-yl)methyl)-6-oxo-6,8-dihydro-2H,7H-spiro[furo[2,3-e]isoindole-3,4′-piperidin]-7-yl)piperidine-2,6-dione], the DC50 in experiment [1] lay within 10 to 100 nM. In experiment [2] (T47D), the IC50 was 1 to 10 nM.

As for `O=C1CC[C@H](NC(=O)c2ccc3c(n2)OC[C@H]2CN(CC4COC5(CN(c6ccc([C@@H]7c8ccc(O)cc8CC[C@@H]7c7ccccc7)cc6)C5)OC4)CCN32)C(=O)N1` [Compound B347, (R)-N-((S)-2,6-dioxopiperidin-3-yl)-3-((2-(4-((1R,2S)-6-hydroxy-2-phenyl-1,2,3,4-tetrahydronaphthalen-1-yl)phenyl)-5,9-dioxa-2-azaspiro[3.5]nonan-7-yl)methyl)-1,2,3,4,4a,5-hexahydropyrazino[1,2-d]pyrido[2,3-b][1,4]oxazine-8-carboxamide], the DC50 in experiment [1] was in the range of 10 to 100 nM. The IC50 in experiment [2] (T47D, T47D cell line) was < 1 nM.

`O=C1CCC(N2Cc3c(ccc4c3OCC43CCN(CC4COC5(CCN(c6ccc([C@@H]7c8ccc(O)cc8CC[C@@H]7c7ccccc7)cc6)CC5)O4)CC3)C2=O)C(=O)N1` (stereo partly drawn) [Compound B350, 3-(1′-((8-(4-((1R,2S)-6-hydroxy-2-phenyl-1,2,3,4-tetrahydronaphthalen-1-yl)phenyl)-1,4-dioxa-8-azaspiro[4.5]decan-2-yl)methyl)-6-oxo-6,8-dihydro-2H,7H-spiro[furo[2,3-e]isoindole-3,4′-piperidin]-7-yl)piperidine-2,6-dione]: the DC50 in experiment [1] fell in the range of 10 to 100 nM. For the same compound, in experiment [2] (T47D), the IC50 was > 10 nM.

`O=C1CCC(N2Cc3cc4c(cc3C2=O)CN(CC2COC3(CCN(c5ccc([C@@H]6c7ccc(O)cc7CC[C@@H]6c6ccccc6)cc5)CC3)C2)C4)C(=O)N1` (stereo partly drawn) [Compound B352, 3-(6-((8-(4-((1R,2S)-6-hydroxy-2-phenyl-1,2,3,4-tetrahydronaphthalcn-1-yl)phcnyl)-1-oxa-8-azaspiro[4.5]decan-3-yl)methyl)-1-oxo-3,5,6,7-tetrahydropyrrolo[3,4-f]isoindol-2(1H)-yl)piperidine-2,6-dione]: in experiment [1], the DC50 lay within 10 to 100 nM. The IC50 in experiment [2] (T47D cell line) was in the range of 1 to 10 nM.

With `O=C1CCC(N2Cc3cc4c(cc3C2=O)CN(CC2COC3(CCN(c5ccc([C@@H]6c7ccc(O)cc7CC[C@@H]6c6ccccc6)cc5)CC3)OC2)C4)C(=O)N1` (stereo partly drawn) [Compound B355, 3-(6-((9-(4-((1R,2S)-6-hydroxy-2-phenyl-1,2,3,4-tetrahydronaphthalen-1-yl)phenyl)-1,5-dioxa-9-azaspiro[5.5]undecan-3-yl)methyl)-1-oxo-3,5,6,7-tetrahydropyrrolo[3,4-f]isoindol-2(1H)-yl)piperidine-2,6-dione], in experiment [1], the DC50 lay within 10 to 100 nM. Moreover, in experiment [2] (T47D, T47D cell line), the IC50 is < 1 nM.
